What was measured:
Assay in all cases: KinaseProfiler Assay
[1] = target: T1, ARK5(h) (Homo sapiens, UniProt O60285)
T1 sequence (O60285 1-661): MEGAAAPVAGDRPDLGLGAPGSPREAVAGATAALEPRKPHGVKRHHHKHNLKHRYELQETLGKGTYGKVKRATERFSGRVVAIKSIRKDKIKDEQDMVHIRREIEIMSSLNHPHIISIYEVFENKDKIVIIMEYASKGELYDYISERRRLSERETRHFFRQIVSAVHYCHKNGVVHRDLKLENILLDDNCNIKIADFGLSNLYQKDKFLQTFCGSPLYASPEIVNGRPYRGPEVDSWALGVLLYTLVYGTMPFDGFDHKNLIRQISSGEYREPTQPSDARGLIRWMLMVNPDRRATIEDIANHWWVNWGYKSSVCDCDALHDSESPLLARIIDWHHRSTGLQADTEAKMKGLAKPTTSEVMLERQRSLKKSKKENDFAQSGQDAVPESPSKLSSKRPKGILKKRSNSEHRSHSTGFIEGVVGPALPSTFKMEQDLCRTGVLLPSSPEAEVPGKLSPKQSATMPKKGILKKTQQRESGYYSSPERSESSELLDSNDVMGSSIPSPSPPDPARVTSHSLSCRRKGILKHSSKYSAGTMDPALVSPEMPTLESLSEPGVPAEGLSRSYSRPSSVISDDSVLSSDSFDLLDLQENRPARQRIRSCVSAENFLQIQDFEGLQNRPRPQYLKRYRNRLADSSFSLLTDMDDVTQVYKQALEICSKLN

[2] = target: Abl(h) (Homo sapiens, UniProt P00519)
Abl(h), sequence (P00519 whole entry): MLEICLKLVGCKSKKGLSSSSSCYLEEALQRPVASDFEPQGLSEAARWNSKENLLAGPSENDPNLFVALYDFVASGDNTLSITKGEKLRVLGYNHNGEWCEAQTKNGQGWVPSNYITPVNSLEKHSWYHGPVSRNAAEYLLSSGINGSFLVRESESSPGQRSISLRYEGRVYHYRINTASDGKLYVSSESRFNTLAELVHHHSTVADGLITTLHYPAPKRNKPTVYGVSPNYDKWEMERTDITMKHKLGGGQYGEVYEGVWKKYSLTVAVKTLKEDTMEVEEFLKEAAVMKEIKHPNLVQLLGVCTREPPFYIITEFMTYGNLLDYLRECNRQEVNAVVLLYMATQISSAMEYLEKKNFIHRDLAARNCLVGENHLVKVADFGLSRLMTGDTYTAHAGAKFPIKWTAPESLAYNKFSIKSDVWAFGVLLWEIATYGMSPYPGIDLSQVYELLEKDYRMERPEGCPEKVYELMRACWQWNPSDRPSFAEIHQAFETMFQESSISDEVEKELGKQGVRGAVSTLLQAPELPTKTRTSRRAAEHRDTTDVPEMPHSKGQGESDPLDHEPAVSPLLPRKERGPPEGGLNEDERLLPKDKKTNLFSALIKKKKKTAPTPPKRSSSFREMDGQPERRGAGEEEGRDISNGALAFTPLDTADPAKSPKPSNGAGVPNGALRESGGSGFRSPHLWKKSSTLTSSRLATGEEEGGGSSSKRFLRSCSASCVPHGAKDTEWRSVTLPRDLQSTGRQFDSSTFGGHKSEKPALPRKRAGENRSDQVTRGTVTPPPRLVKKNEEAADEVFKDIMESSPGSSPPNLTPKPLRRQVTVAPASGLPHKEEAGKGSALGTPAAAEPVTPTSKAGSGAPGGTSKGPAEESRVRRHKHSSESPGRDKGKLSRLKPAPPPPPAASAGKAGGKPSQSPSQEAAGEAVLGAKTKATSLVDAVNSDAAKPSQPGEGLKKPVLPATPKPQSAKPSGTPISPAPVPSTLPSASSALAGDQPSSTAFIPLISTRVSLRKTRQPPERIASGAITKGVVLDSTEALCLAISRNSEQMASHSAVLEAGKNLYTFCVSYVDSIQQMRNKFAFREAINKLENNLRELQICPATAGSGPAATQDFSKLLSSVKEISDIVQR

[3] = target: PKBβ(h) (Homo sapiens, UniProt P31751)
PKBβ(h), sequence (P31751 whole entry): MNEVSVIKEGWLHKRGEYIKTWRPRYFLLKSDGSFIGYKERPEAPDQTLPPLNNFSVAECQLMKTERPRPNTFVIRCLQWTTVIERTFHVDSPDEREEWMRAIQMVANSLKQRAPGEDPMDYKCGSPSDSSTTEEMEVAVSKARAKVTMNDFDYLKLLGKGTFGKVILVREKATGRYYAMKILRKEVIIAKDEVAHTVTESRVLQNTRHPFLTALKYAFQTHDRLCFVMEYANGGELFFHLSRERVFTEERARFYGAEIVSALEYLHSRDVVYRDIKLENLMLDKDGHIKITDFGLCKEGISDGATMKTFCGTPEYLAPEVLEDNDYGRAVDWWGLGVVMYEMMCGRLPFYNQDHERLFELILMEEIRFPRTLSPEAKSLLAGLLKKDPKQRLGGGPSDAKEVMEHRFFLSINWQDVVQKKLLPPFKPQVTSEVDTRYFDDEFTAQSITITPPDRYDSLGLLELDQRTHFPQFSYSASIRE

[4] = target: Pim-2(h) (Homo sapiens, UniProt Q9P1W9)
Pim-2(h), sequence (Q9P1W9 whole entry): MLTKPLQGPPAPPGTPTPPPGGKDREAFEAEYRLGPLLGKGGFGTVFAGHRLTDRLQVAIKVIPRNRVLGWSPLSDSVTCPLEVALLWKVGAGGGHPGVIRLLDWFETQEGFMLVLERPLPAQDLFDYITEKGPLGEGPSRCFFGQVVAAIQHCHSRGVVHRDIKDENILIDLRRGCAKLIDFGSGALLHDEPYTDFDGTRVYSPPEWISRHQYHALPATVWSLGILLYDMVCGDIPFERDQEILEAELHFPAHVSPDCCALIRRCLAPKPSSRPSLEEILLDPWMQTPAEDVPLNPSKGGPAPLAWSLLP

[5] = target: NEK7(h) (Homo sapiens, UniProt Q8TDX7)
NEK7(h), sequence (Q8TDX7 whole entry): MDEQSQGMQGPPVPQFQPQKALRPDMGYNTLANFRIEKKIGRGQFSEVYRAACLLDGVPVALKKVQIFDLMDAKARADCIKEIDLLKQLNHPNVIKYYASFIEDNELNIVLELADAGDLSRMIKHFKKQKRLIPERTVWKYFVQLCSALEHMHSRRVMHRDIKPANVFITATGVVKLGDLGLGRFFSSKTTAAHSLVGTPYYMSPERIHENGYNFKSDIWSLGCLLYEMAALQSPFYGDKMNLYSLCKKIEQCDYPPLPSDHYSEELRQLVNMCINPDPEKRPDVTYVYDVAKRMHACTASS

[6] = target: MLCK(h)
[7] = target: Rsk4(h) (Homo sapiens, UniProt Q9UK32)
Rsk4(h), sequence (Q9UK32 whole entry): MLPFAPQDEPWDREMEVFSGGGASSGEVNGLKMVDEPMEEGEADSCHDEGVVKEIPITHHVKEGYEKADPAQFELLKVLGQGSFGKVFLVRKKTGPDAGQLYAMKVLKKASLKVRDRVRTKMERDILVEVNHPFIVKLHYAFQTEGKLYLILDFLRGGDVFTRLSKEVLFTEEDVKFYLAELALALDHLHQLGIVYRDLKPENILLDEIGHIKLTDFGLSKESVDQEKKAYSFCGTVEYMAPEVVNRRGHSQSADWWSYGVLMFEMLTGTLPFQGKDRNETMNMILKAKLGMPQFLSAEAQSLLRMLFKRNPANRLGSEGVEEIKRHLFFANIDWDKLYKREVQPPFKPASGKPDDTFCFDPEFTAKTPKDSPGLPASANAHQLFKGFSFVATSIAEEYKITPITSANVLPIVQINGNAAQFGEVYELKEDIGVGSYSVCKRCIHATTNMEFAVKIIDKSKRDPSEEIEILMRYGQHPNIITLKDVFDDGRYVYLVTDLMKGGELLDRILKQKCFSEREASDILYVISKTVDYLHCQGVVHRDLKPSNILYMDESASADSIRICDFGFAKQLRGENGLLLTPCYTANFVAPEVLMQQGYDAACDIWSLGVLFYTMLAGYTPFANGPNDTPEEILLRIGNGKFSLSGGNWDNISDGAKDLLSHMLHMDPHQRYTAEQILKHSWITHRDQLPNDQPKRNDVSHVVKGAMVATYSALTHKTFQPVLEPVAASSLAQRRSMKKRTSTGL

[8] = target: cKit(D816H)(h) (Homo sapiens, UniProt P10721, D816H)
cKit(D816H)(h), sequence (P10721 26-976 D816H): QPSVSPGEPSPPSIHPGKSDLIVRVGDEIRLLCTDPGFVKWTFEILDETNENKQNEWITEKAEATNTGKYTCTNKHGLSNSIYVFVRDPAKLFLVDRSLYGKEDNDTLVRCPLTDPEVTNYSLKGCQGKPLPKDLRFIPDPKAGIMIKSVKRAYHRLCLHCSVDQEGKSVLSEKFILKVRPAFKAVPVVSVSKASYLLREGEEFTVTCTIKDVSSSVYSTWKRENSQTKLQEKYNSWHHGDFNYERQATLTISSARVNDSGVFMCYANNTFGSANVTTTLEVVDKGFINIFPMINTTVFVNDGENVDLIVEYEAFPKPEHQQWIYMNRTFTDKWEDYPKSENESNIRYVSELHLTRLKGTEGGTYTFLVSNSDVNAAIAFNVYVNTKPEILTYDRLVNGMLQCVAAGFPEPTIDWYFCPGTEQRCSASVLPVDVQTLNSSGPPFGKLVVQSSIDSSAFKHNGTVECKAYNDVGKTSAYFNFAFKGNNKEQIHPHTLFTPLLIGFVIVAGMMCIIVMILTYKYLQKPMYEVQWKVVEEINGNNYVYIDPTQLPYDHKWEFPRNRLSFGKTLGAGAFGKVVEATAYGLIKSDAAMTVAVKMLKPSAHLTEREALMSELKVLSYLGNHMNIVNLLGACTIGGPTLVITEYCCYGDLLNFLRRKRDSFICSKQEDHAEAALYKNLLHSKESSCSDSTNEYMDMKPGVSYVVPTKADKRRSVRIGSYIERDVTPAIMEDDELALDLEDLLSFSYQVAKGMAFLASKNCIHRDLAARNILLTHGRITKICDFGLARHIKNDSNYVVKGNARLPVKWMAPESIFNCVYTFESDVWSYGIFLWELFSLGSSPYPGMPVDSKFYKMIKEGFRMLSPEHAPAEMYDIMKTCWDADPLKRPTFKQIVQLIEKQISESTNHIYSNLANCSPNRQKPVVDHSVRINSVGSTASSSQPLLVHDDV

[9] = target: EphA2(h) (Homo sapiens, UniProt P29317)
EphA2(h), sequence (P29317 24-976): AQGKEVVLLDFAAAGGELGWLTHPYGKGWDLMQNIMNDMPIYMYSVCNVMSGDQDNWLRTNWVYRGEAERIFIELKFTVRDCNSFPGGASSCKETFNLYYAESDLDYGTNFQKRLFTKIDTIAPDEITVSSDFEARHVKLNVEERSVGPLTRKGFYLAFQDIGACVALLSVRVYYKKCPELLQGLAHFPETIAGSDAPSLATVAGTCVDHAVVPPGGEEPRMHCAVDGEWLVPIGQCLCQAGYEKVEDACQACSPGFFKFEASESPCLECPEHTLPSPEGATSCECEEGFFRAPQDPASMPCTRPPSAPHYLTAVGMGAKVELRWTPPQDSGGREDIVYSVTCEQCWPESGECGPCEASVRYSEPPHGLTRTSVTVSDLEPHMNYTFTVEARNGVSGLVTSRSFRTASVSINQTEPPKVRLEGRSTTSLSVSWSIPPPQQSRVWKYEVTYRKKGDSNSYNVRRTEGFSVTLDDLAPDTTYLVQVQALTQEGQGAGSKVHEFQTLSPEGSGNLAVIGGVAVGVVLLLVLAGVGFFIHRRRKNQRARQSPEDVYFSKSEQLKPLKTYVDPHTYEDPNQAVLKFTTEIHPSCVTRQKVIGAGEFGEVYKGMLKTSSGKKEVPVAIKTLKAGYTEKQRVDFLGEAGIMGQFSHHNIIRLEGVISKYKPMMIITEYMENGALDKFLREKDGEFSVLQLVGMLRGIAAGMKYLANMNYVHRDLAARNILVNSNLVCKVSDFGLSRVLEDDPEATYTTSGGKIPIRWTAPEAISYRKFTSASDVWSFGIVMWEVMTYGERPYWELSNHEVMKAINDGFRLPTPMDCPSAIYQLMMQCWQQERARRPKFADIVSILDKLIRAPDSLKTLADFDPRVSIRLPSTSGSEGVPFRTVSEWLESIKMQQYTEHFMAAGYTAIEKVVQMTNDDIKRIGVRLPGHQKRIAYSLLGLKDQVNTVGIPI

[10] = target: T2, DCAMKL2(h) (Homo sapiens, UniProt Q8N568)
T2 sequence (Q8N568 1-766): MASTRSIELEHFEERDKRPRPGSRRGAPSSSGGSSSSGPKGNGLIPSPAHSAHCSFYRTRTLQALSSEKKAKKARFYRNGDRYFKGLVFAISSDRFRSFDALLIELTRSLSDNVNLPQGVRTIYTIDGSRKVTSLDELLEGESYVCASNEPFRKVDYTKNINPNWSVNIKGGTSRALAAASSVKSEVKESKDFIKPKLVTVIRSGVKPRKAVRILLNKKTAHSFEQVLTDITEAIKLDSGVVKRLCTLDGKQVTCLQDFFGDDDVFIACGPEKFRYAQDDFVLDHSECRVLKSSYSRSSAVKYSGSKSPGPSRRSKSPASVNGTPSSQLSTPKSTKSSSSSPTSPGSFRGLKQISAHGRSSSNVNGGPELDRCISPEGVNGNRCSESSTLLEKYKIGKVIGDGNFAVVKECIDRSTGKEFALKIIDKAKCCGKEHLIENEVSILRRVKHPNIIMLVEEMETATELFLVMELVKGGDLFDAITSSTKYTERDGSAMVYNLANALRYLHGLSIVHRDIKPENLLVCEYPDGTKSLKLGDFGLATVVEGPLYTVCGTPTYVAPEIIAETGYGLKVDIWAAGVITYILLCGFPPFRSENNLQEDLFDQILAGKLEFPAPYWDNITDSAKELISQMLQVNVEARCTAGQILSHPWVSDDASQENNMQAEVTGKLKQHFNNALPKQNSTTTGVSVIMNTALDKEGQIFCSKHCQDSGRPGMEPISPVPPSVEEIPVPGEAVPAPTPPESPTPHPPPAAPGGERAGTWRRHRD

With `CC(C)CCC(=O)[C@]1(O)C(O)=C(C(=O)C(C)C)C(=O)[C@H]1CCC(C)C` [TH2, tetrahydroiso-cohumulone] the kinase inhibition ([1]; 1 μg/ml) was 103% of control, the kinase inhibition ([1]; 5 μg/ml) was 104% of control and the kinase inhibition ([1]; 25 μg/ml) was 99% of control. For the same compound, the kinase inhibition ([1]; 50 μg/ml) was 77% of control, the kinase inhibition ([1]; 100 μg/ml) was 74% of control and the kinase inhibition ([2]; 1 μg/ml) was 92% of control. The kinase inhibition ([2]; 5 μg/ml) was 87% of control, the kinase inhibition ([2]; 25 μg/ml) was 70% of control and the kinase inhibition ([2]; 50 μg/ml) was 64% of control. The kinase inhibition ([2]; 100 μg/ml) was 40% of control, the kinase inhibition ([3]; 1 μg/ml) was 104% of control and the kinase inhibition ([3]; 5 μg/ml) was 97% of control. For the same compound, the kinase inhibition ([3]; 25 μg/ml) was 68% of control, the kinase inhibition ([3]; 50 μg/ml) was 43% of control and the kinase inhibition ([3]; 100 μg/ml) was 31% of control. The kinase inhibition ([4]; 1 μg/ml) was 103% of control, the kinase inhibition ([4]; 5 μg/ml) was 111% of control and the kinase inhibition ([4]; 25 μg/ml) was 77% of control. For the same compound, the kinase inhibition ([4]; 50 μg/ml) was 73% of control, the kinase inhibition ([4]; 100 μg/ml) was 67% of control and the kinase inhibition ([5]; 1 μg/ml) was 103% of control. For the same compound, the kinase inhibition ([5]; 5 μg/ml) was 107% of control, the kinase inhibition ([5]; 25 μg/ml) was 98% of control and the kinase inhibition ([5]; 50 μg/ml) was 95% of control. The kinase inhibition ([5]; 100 μg/ml) was 84% of control, the kinase inhibition ([6]; 1 μg/ml) was 98% of control and the kinase inhibition ([6]; 5 μg/ml) was 96% of control. The kinase inhibition ([6]; 25 μg/ml) was 105% of control, the kinase inhibition ([6]; 50 μg/ml) was 93% of control and the kinase inhibition ([6]; 100 μg/ml) was 86% of control. The kinase inhibition ([7]; 1 μg/ml) was 79% of control, the kinase inhibition ([7]; 5 μg/ml) was 71% of control and the kinase inhibition ([7]; 25 μg/ml) was 47% of control. The kinase inhibition ([7]; 50 μg/ml) was 31% of control, the kinase inhibition ([7]; 100 μg/ml) was 17% of control and the kinase inhibition ([8]; 1 μg/ml) was 123% of control. The kinase inhibition ([8]; 5 μg/ml) was 116% of control, the kinase inhibition ([8]; 25 μg/ml) was 104% of control and the kinase inhibition ([8]; 50 μg/ml) was 114% of control. For the same compound, the kinase inhibition ([8]; 100 μg/ml) was 108% of control, the kinase inhibition ([9]; 1 μg/ml) was 102% of control and the kinase inhibition ([9]; 5 μg/ml) was 104% of control. The kinase inhibition ([9]; 25 μg/ml) was 105% of control, the kinase inhibition ([9]; 50 μg/ml) was 99% of control and the kinase inhibition ([9]; 100 μg/ml) was 92% of control. The kinase inhibition ([10]; 1 μg/ml) was 96% of control, the kinase inhibition ([10]; 5 μg/ml) was 100% of control and the kinase inhibition ([10]; 25 μg/ml) was 110% of control. The kinase inhibition ([10]; 50 μg/ml) was 96% of control and the kinase inhibition ([10]; 100 μg/ml) was 86% of control.
